Measurements from publication PMC9321963 (Birth Defects Research, 2022).

How the values were obtained:
[1] = Toxicokinetics, rat DRF EFD study; assay type: in vivo; conditions: for AUC(0-t) / Cmax / Tmax: female, Sprague-Dawley (Crl:CD SD), rat, plasma, po, 60 mg/kg/day, rat DRF EFD, 60 mg/kg/day oral; for Cmax: C max; for Tmax: T max
[2] = Toxicokinetics, rat main EFD study; assay type: in vivo; conditions: for Tmax / AUC(0-t) / Cmax: female, Sprague-Dawley (Crl:CD SD), rat, plasma, po; for AUC(0-t) / Cmax: rat main EFD; for Cmax: C max
[3] = Toxicokinetics, rat investigative EFD study; assay type: in vivo; conditions: for Tmax / AUC(0-t) / Cmax: female, rat, plasma, po; for AUC(0-t) / Cmax: rat investigative EFD; for Cmax: C max
[4] = Toxicokinetics, rabbit DRF EFD study; conditions: female, in vivo
[5] = Toxicokinetics, rabbit main EFD study; conditions: female, in vivo
pregnant rats = test: Rat DRF embryofetal developmental toxicity study; assay type: in vivo; conditions: rat DRF EFD
pregnant rabbits = test: Rabbit EFD studies; assay type: in vivo
PI4Kα = PI4Kα (Homo sapiens, UniProt P42356); test: ADP-Glo Kinase Assay, PI4Kα; assay type: biochemical
Chain of PI4Kα (P42356 whole entry): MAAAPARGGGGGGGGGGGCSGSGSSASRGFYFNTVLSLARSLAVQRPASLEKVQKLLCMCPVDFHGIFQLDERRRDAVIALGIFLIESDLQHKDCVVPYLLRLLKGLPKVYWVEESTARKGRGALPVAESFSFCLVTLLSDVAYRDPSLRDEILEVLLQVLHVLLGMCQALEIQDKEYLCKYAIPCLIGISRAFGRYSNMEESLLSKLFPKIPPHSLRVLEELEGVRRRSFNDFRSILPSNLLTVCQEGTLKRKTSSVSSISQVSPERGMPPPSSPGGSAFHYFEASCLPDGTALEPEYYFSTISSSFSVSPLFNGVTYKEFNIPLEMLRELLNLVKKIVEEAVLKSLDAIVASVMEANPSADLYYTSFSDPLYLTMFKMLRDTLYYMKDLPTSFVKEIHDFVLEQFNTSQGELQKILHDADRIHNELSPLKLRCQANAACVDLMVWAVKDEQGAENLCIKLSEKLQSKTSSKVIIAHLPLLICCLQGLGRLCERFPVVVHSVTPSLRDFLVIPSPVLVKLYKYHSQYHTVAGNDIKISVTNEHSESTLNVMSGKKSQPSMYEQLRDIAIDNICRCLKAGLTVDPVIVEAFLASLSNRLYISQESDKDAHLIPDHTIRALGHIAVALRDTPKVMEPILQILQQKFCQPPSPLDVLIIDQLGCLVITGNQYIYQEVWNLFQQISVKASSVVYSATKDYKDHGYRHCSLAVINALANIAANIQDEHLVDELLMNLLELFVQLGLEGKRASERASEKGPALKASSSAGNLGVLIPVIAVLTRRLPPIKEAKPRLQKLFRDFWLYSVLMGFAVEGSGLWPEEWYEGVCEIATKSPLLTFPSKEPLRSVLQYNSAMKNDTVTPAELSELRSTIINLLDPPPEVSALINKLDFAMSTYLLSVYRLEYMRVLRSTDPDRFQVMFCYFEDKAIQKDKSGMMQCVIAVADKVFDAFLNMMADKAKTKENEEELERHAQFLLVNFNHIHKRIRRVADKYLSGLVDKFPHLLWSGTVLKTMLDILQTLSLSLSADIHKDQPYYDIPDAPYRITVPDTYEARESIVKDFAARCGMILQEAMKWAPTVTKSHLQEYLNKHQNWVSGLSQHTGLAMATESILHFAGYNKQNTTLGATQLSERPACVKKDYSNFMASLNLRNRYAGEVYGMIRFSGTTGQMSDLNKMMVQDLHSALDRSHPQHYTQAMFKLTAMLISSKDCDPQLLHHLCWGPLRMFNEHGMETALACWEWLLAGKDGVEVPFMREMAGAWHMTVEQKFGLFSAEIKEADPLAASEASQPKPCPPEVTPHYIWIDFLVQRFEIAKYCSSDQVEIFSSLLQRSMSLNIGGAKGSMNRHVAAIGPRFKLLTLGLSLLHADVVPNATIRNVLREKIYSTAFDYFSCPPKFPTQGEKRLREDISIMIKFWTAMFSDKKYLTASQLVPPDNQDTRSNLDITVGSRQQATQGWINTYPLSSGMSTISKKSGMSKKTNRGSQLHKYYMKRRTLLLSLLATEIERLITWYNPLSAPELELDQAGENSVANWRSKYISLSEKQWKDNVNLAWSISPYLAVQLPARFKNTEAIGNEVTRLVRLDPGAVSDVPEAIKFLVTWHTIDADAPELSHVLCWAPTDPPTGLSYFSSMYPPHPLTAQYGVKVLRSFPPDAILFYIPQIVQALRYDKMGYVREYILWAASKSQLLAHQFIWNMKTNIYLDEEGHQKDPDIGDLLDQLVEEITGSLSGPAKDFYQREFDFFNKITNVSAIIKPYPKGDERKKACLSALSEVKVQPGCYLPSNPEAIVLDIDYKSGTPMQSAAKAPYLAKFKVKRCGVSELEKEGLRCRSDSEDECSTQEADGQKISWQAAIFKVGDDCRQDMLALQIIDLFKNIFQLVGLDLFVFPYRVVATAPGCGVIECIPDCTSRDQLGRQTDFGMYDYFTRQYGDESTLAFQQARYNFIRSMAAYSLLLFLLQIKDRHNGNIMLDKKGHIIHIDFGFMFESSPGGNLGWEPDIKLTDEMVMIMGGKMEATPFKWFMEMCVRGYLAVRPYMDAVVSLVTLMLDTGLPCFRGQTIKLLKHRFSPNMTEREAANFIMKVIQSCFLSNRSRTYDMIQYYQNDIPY

PI3Kγ = PI3Kγ (Homo sapiens, UniProt P48736); test: ADP-Glo Kinase Assay, PI3Kγ; assay type: biochemical
TSF1 = TSF1 (Homo sapiens, UniProt O75716); test: ADP-Glo Kinase Assay, TSF1; assay type: biochemical
Chain of TSF1 (O75716 whole entry): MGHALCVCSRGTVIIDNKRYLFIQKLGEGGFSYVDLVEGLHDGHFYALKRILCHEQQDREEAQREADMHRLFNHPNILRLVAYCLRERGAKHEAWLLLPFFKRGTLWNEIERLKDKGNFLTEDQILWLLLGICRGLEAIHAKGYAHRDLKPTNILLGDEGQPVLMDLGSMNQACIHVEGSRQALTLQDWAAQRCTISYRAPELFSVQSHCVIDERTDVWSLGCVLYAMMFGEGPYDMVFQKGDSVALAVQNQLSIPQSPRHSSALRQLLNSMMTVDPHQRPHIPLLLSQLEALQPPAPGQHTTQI

AhR = biological target: T1, AhR (Homo sapiens, UniProt P35869); test: In vitro off-target inhibition, AhR
T1 sequence (P35869 11-848): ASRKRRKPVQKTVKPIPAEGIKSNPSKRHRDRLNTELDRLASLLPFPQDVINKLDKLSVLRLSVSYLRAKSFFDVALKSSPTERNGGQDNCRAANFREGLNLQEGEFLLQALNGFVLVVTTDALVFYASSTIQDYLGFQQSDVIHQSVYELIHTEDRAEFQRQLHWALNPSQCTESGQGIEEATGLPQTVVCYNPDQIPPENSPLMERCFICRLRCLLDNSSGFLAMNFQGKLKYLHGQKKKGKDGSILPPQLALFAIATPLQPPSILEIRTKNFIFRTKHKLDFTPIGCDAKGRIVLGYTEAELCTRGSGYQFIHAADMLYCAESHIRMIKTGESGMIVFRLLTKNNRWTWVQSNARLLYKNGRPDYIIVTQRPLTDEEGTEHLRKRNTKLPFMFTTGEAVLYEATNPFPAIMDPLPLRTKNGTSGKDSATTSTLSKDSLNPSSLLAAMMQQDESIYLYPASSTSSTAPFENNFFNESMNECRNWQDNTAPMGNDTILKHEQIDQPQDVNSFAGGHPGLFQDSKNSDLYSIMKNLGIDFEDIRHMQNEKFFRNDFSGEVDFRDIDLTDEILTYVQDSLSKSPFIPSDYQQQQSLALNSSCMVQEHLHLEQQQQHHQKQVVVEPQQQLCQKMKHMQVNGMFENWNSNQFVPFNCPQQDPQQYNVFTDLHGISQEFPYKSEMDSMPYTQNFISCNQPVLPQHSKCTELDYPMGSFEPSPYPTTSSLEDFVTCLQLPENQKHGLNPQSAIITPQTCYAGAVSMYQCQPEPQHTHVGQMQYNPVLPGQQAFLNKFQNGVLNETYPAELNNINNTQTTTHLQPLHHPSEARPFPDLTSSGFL

PI3Kδ = PI3Kδ (Homo sapiens, UniProt O00329); test: ADP-Glo Kinase Assay, PI3Kδ; assay type: biochemical
Chain of PI3Kδ (O00329 whole entry): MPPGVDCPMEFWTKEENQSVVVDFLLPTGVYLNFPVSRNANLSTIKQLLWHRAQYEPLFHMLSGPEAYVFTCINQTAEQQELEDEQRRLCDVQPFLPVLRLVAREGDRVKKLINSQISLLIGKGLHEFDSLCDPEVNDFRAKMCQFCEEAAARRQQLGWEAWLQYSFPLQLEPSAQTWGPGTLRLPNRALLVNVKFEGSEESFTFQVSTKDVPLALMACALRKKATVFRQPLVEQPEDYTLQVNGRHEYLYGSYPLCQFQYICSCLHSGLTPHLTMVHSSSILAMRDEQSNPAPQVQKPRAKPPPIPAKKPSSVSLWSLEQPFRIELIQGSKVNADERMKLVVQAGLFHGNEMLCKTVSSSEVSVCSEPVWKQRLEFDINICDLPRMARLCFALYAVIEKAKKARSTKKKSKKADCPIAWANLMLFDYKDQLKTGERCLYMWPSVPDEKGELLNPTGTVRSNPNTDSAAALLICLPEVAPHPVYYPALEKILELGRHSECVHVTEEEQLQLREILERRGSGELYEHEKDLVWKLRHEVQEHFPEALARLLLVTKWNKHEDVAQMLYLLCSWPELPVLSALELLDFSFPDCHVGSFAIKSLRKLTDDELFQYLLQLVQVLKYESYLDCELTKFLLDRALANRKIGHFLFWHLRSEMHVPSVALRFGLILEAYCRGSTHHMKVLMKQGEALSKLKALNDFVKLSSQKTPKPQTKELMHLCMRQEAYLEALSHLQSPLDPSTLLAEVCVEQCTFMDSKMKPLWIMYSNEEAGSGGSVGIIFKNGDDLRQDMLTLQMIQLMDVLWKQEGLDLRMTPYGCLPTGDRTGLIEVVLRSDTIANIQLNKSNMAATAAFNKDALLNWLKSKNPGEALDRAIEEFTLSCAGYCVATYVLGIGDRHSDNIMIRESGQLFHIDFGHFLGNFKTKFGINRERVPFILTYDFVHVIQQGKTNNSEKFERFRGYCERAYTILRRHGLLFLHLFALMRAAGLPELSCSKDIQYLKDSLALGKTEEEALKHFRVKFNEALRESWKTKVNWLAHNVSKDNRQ
Chain of PI3Kδ (P27986 whole entry partner): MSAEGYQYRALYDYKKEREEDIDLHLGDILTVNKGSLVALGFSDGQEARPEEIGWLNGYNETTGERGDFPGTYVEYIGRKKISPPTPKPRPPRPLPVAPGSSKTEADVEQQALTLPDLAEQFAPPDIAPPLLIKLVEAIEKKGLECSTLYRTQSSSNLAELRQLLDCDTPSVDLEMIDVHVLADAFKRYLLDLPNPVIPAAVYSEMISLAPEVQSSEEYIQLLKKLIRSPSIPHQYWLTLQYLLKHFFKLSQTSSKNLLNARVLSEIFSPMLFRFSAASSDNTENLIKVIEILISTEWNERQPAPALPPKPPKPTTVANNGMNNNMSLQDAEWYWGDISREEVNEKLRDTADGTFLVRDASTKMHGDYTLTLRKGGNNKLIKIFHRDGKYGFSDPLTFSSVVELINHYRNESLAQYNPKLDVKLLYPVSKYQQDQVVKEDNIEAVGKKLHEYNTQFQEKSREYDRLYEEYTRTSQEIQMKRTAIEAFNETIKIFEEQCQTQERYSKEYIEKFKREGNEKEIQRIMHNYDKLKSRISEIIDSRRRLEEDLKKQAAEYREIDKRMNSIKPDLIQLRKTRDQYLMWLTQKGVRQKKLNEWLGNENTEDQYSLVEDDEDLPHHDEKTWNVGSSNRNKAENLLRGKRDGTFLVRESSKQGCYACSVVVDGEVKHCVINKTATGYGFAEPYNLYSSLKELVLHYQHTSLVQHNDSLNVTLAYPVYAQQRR

[6] = biological target: All other off‐targets including kinases tested; test: In vitro off-target and kinase panels, all other targets; assay type: biochemical; conditions: read-out: IC50s, all other off‐targets including kinases tested, human
PI4Kβ = PI4Kβ (Homo sapiens, UniProt Q9UBF8); conditions: chemoproteomic profiling, ref Paquet et al., [2017]; cited from earlier work
Chain of PI4Kβ (Q9UBF8 whole entry): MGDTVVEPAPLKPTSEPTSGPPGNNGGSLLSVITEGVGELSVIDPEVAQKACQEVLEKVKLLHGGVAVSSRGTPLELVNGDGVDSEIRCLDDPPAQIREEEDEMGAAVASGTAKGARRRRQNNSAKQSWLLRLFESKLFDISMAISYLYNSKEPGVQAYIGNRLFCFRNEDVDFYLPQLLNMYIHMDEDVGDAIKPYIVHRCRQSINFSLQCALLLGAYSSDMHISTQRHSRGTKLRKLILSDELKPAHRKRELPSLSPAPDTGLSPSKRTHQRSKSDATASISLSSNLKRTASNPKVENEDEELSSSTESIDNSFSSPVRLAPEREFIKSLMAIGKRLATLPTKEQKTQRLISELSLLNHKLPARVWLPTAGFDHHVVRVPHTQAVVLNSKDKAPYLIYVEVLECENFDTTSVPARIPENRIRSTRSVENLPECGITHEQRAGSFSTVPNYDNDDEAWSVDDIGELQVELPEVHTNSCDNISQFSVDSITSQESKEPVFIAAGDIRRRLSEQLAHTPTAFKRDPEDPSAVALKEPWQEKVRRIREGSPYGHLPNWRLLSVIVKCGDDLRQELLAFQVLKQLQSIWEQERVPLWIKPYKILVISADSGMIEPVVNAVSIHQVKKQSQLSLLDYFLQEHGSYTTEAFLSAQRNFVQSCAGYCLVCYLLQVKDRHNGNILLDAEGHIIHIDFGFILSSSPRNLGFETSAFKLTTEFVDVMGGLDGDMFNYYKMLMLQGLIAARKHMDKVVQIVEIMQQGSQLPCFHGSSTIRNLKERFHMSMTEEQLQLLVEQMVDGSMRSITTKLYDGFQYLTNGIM

[7] = 2 mg/kg/day, 2 mg/kg/day oral, GD6
[8] = 2 mg/kg/day, 2 mg/kg/day oral, GD17
[9] = 6 mg/kg/day, 6 mg/kg/day oral, GD6
[10] = 6 mg/kg/day, 6 mg/kg/day oral, GD17
[11] = 20 mg/kg/day, 20 mg/kg/day oral, GD6
[12] = 20 mg/kg/day, 20 mg/kg/day oral, GD17
[13] = Sprague-Dawley (Crl: OFA SD), 40 mg/kg/day, 40 mg/kg/day oral, GD6
[14] = Sprague-Dawley (Crl: OFA SD), 40 mg/kg/day, 40 mg/kg/day oral, GD17
[15] = Sprague-Dawley, 20 mg/kg/day, 20 mg/kg/day oral, GD6
[16] = Sprague-Dawley, 20 mg/kg/day, 20 mg/kg/day oral, GD17

## CS(=O)(=O)c1ccc(-c2cnc(N)c(-c3ccc(C(F)(F)F)nc3)c2)cc1 [MMV390048]
[1]; across rat EFD in vivo studies
  maximum concentrations achieved in vivo, free: 8 µM
[1]; GD6
  AUC(0-t): 229 µg·h/mL
  Cmax: 15.6 µg/mL
  Tmax: 8 h
[1]; GD17
  AUC(0-t): 361 µg·h/mL
  Cmax: 21.3 µg/mL
  Tmax: 4 h
[1]; rat DRF EFD KIT, GD17, 60 mg/kg, 4 hr post dose
  Maximum exposure (free): 8 μM/L
[2]; 2 mg/kg/day
  Tmax: 2 h
[2]; [7]
  AUC(0-t): 3.75 µg·h/mL
  Cmax: 0.679 µg/mL
[2]; [8]
  AUC(0-t): 3.77 µg·h/mL
  Cmax: 0.681 µg/mL
[2]; 6 mg/kg/day
  Tmax: 2 h
[2]; [9]
  AUC(0-t): 19.6 µg·h/mL
  Cmax: 1.38 µg/mL
[2]; [10]
  AUC(0-t): 21.4 µg·h/mL
  Cmax: 1.6 µg/mL
[2]; 20 mg/kg/day
  Tmax: 4 h
[2]; [11]
  AUC(0-t): 70 µg·h/mL
  Cmax: 4.95 µg/mL
[2]; [12]
  AUC(0-t): 74.4 µg·h/mL
  Cmax: 5.19 µg/mL
[2]; rat EFD main KIT, GD17, 20 mg/kg, 4 hr post dose
  Maximum exposure (free): 2 μM/L
[3]; Sprague-Dawley (Crl: OFA SD), 40 mg/kg/day
  Tmax: 7 h
[3]; [13]
  AUC(0-t): 213 µg·h/mL
  Cmax: 11.3 µg/mL
[3]; [14]
  AUC(0-t): 310 µg·h/mL
  Cmax: 17.1 µg/mL
[3]; Sprague-Dawley, 20 mg/kg/day
  Tmax: 7 h
[3]; [15]
  AUC(0-t): 92.9 µg·h/mL
  Cmax: 5.23 µg/mL
[3]; [16]
  AUC(0-t): 134 µg·h/mL
  Cmax: 7.55 µg/mL
[3]; rat investigational EFD CRL, GD17, 40 mg/kg, 7 hr post dose
  Maximum exposure (free): 6.5 μM/L
[4]; 1 mg/kg/day
  AUC(0-t): 3.75 µg·h/mL
  Cmax: 0.267 µg/mL
  Tmax: 2 h
[4]; 3 mg/kg/day
  AUC(0-t): 14.9 µg·h/mL
  Cmax: 0.857 µg/mL
  Tmax: 4 h
[4]; 10 mg/kg/day
  AUC(0-t): 64.5 µg·h/mL
  Cmax: 3.79 µg/mL
  Tmax: 4 h
[5]; 1 mg/kg/day
  AUC(0-t): 4.09 µg·h/mL
  Cmax: 0.25 µg/mL
  Tmax: 4 h
[5]; 3 mg/kg/day
  AUC(0-t): 13.6 µg·h/mL
  Cmax: 0.894 µg/mL
  Tmax: 2 h
[5]; 10 mg/kg/day
  AUC(0-t): 53.3 µg·h/mL
  Cmax: 3.41 µg/mL
  Tmax: 2 h
Pregnant rats; 3 mg/kg/day GD6-GD17
  Female with viable fetuses: 8/8
  Postimplantation loss (%): 5.1%
Pregnant rats; 10 mg/kg/day GD6-GD17
  Female with viable fetuses: 8/8
  Fetal BW % from CTL: −2%
  Postimplantation loss (%): 1.7%
Pregnant rats; 30 mg/kg/day GD6-GD17
  Female with viable fetuses: 7/7
  Fetal BW % from CTL: −5%
  Heart VSD, fetuses with malformation/total fetuses examined: 1/43
  Heart VSD, litters with malformation/total litters examined: 1/7
  Postimplantation loss (%): 5.9%
Pregnant rats; 60 mg/kg/day
  Treatment‐related skeletal malformations: fused rib, short rib, split sternebra, and fused cervical arch
  VSD, number of fetuses: 3 fetuses
  VSD, number of litters: 3 litters
  hernia of the diaphragm, number of fetuses: 12 fetuses
  hernia of the diaphragm, number of litters: 3 litters
Pregnant rats; 60 mg/kg/day GD6-GD17
  Blood vessels IAA, fetuses with malformation/total fetuses examined: 1/40
  Blood vessels IAA, litters with malformation/total litters examined: 1/8
  Female with viable fetuses: 8/8
  Fetal BW % from CTL: −16%
  Heart VSD, fetuses with malformation/total fetuses examined: 7/40
  Heart VSD, litters with malformation/total litters examined: 3/8
  Hernias, fetuses with malformation/total fetuses examined: 12/40
  Hernias, litters with malformation/total litters examined: 3/8
  Postimplantation loss (%): 21.9%
Pregnant rats; 60 mg/kg/day, 14 in the control group
  litter size: 10.6
Pregnant rabbits
  embryofetal developmental toxicity signals: no signals of concern
PI4Kα
  IC50: 18.7 µM
PI3Kγ
  IC50: 4.3 µM
TSF1
  IC50: 7.3 µM
AhR
  IC50: 7.9 µM
PI3Kδ
  IC50: 8.1 µM
[6]
  IC50: ≥ 20 µM
PI4Kβ
  binding to human PI4Kβ: no binding
